# ChEMBL document CHEMBL6078649, “Discovery of Chalcone Derivatives as Bifunctional Molecules with Anti-SARS-CoV-2 and Anti-inflammatory Activities” (J Nat Prod, 2024)
# System: SARS-CoV-2
# Experiment: Antiviral activity against SARS-CoV-2 infected in human Huh-7 cells harboring viral replicon/EGFP/Neo genes assessed as inhibition of EGFP expression incubated for 24 hrs
# Type: functional, organism-based
# Details: Severe acute respiratory syndrome coronavirus 2, Huh-7, 24 h
row,SMILES,EC50
1,O=C(/C=C/c1cc(O)c(O)c(O)c1)c1ccc(F)cc1,11.7 µM
2,O=C(/C=C/c1c(Cl)c(O)c(O)c(O)c1Cl)c1ccc(F)cc1,19.9 µM
3,CC(=O)Oc1c(Cl)c(/C=C/C(=O)c2ccc(F)cc2)c(Cl)c(OC(C)=O)c1OC(C)=O,40.3 µM
4,O=C(CCc1cc(O)c(O)c(O)c1)c1ccc(F)cc1,32.1 µM
